Values of other authors in patent publication US9491955B2, “Balanced myristate- and laurate-containing edible oil” (Brandeis University, priority 2008, dated 2016).

System: rats
Details: trimyristin component of a blend with peanut oil

Structure (SMILES): CCCCCCCCCCCCCC(=O)OCC(COC(=O)CCCCCCCCCCCCC)OC(=O)CCCCCCCCCCCCC [trimyristin]
- Decrease of cholesterol-raising capacity by interesterification with GNO: 34%
